Values quoted from earlier work, collected in patent publication US20020004528A1, “Method for the treatment of insomnia” (priority 1998, published 2002).

Details: one study mentioned in U.S. Pat. No. 5,510,381 (use of gabapentin to treat mania)

1-(aminomethyl)-cyclohexane acetic acid [gabapentin]
effect on delta-wave (deep) sleep: enhance delta-wave (deep) sleep
